For 13 molecules, TGI results are on record in PubChem BioAssay (NCI).

Among the test systems are A549 NSCLC; EKVX NSCLC; HCT-15 colon; LOX IMVI melanoma; MCF7 breast; MOLT-4 leukemia; PC-3 prostate; SF-268 CNS.
Holding throughout (assay): NCI tumour cell line growth inhibition, 48 h

Each structure is given as a SMILES string.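 Growth conditions: 96-well plates. Treatment: test compound, 48 hours, 5 concentrations. Analysis: linear interpolation between bracketing concentrations; unreached endpoints set to highest concentration. TGI denotes the concentration required for complete inhibition of growth.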 Bounds are passed on as bounds.

As for `CCOC(=O)C(C(=S)Nc1ccccc1)c1nn2c(=O)cc(C)nc2s1` (centres undefined), the TGI was over 100 µM in the test on A549 NSCLC; 49.2 µM in the test with EKVX NSCLC; 85 µM in the test on HCT-15 colon; 30.4 µM with LOX IMVI melanoma; 37.8 µM in the test with MCF7 breast; 69.1 µM in the test with MOLT-4 leukemia. In addition, the TGI with PC-3 prostate is 66.3 µM; in the test with SF-268 CNS, over 100 µM.

As to `O=C(/C=C/c1ccc(/C=C/C(=O)c2ccc(O)cc2)cc1)c1ccc(O)cc1`, the TGI in the test on A549 NSCLC, in the test on EKVX NSCLC, with HCT-15 colon, in the test on LOX IMVI melanoma, with MCF7 breast and in the test with MOLT-4 leukemia was over 100 µM in each case. Moreover, the TGI with PC-3 prostate and with SF-268 CNS was over 100 µM each time.

Consider `CSc1ccc(NC(=S)NN(C)C)cc1`, for which the TGI in the test with A549 NSCLC, in the test with EKVX NSCLC, with HCT-15 colon, with LOX IMVI melanoma, with MCF7 breast and in the test with MOLT-4 leukemia was over 10 µM throughout. The TGI in the test on PC-3 prostate and in the test with SF-268 CNS was over 10 µM throughout.

With `COC1(OC)CC(CO)(CNc2cc(Cl)nc(N)n2)C1`, the TGI in the test with A549 NSCLC, in the test with EKVX NSCLC, in the test with HCT-15 colon, with LOX IMVI melanoma, with MCF7 breast and in the test with MOLT-4 leukemia was over 100 µM throughout. Besides, the TGI with PC-3 prostate and in the test on SF-268 CNS was over 100 µM each time.

In the case of `Cc1cc(NC[C@H](O)[C@H](O)[C@H](O)CO)c(Sc2cc(=O)[nH]c(=O)[nH]2)cc1C`, the TGI in the test on A549 NSCLC, in the test on EKVX NSCLC, with HCT-15 colon, in the test on LOX IMVI melanoma, with MCF7 breast and with MOLT-4 leukemia was over 62.5 µM in each case. Moreover, the TGI in the test with PC-3 prostate and with SF-268 CNS was over 62.5 µM each time.

On to `CC(C)C1=CCC2C(=C1)CCC1C(C)(C(=O)O)CCCC21C` (centres undefined) (tested in a mixture with another compound), for which the TGI in the test on A549 NSCLC, in the test on EKVX NSCLC, in the test with HCT-15 colon, in the test on LOX IMVI melanoma, in the test with MCF7 breast and in the test with MOLT-4 leukemia was over 100 µM in each case. In addition, the TGI in the test with PC-3 prostate and in the test on SF-268 CNS was over 100 µM in each case.

Regarding `Brc1ccc2c([C@H]3CN[C@@H](c4c[nH]c5cc(Br)ccc45)CN3)c[nH]c2c1`, the TGI in the test on A549 NSCLC is 7.39 µM; in the test on EKVX NSCLC it was 23.2 µM; in the test on HCT-15 colon, 11.2 µM; in the test with LOX IMVI melanoma it was 3.36 µM; in the test on MCF7 breast, 4 µM; with MOLT-4 leukemia, 6.48 µM. The TGI with PC-3 prostate was determined as 15.2 µM; in the test on SF-268 CNS, 20.4 µM.

`Cc1noc2nnn(-c3ccc(Cl)cc3)c(=O)c12`: the TGI stood at 27.7 µM with A549 NSCLC; 20.4 µM in the test on EKVX NSCLC; 10.3 µM in the test on HCT-15 colon; 11.4 µM with LOX IMVI melanoma; 13.6 µM in the test on MCF7 breast; 1.94 µM in the test with MOLT-4 leukemia. For the same molecule, the TGI came to 19.2 µM with PC-3 prostate and 22.1 µM with SF-268 CNS.

As to `COc1ccc2oc(OC)c(CC=C(C)C)c(=O)c2c1C`, the TGI in the test with A549 NSCLC, in the test on EKVX NSCLC, in the test with HCT-15 colon, with LOX IMVI melanoma, in the test on MCF7 breast and in the test on MOLT-4 leukemia was over 100 µM in each case. Moreover, the TGI in the test on PC-3 prostate and in the test with SF-268 CNS was over 100 µM each time.

For the molecule `N=C(N)SCc1ccc(Cl)cc1Cl` (tested in a mixture with another compound), the TGI was over 69.6 µM in the test on A549 NSCLC; 37.2 µM with EKVX NSCLC; 35.1 µM with HCT-15 colon; 38.8 µM in the test on LOX IMVI melanoma; 28.5 µM in the test with MCF7 breast; 35.4 µM in the test with MOLT-4 leukemia. For the same molecule, the TGI in the test with PC-3 prostate was found to be 24.6 µM; in the test on SF-268 CNS, 40 µM.

For `CCN1CCN(c2nc3ccc([N+](=O)[O-])cc3nc2C(=O)c2ccccc2)CC1`, the TGI in the test with A549 NSCLC is 33.7 µM; in the test with EKVX NSCLC it was 29.6 µM; with HCT-15 colon, 25 µM; in the test on LOX IMVI melanoma, 17.8 µM; with MCF7 breast, 34.8 µM; in the test on MOLT-4 leukemia, over 100 µM. Moreover, the TGI with PC-3 prostate was 32.3 µM; in the test on SF-268 CNS, 38 µM.

Turning to `Nc1nc(Cl)cc(NCCC2(CO)CCC2)n1`, the TGI with A549 NSCLC, in the test on EKVX NSCLC, in the test on HCT-15 colon, with LOX IMVI melanoma, with MCF7 breast and with MOLT-4 leukemia was over 100 µM throughout. Moreover, the TGI with PC-3 prostate and in the test on SF-268 CNS was over 100 µM each time.

On to `CCOC(=O)C(Cl)(NC(=O)c1c(F)c(F)c(F)c(F)c1F)C(F)(F)F` (centres undefined), for which the TGI in the test on A549 NSCLC, in the test on EKVX NSCLC, with HCT-15 colon, in the test on LOX IMVI melanoma, in the test with MCF7 breast and in the test on MOLT-4 leukemia was over 100 µM throughout. Moreover, the TGI with PC-3 prostate and with SF-268 CNS was over 100 µM throughout.
